Test results published in patent publication US9546355B2, “Conditional replicating cytomegalovirus as a vaccine for CMV” (Merck Sharp & Dohme Corp., priority 2011, dated 2017).

What was measured:
ARPE-19 cells = test: Shield-1 concentration dependent progeny virus production (TCID50 assay); type: cell-based; conditions: rdCMV in ARPE-19 cells and other human primary cells
Method: ARPE-19 cells were infected with the rdCMV viruses at a multiplicity of 0.01 PFU/cell for 1 h, washed twice with fresh medium, and incubated in the growth medium containing 0, 0.05, 0.1 0.5 or 2 μM of Shield-1. Seven days post infection, the cell free virus was collected, and virus titers were determined by TCID50 assay on ARPE-19 cells in the presence of 2 μM of Shield 1.
Varying concentrations of Shld-1 were used in additional experiments to further assess viral replication in the presence or absence of Shld-1. ARPE-19 cells were infected by the gH expressing CMV that also contained a FKBP derivative fused to an essential protein at MOI of […]. After infection for 1 hour, the cells were washed twice with fresh medium to remove the Shld-1 from the inoculums. The inoculums were then added to ARPE-19 cells cultured in medium containing 0.05, 0.1, 0.5 or 2 μM of Shield-1. Seven days post infection, the cell-free progeny virus in the supernatant was collected and titrated on ARPE-19 cells supplemented with […] of Shield-1. Virus titers were determined by a 50% Tissue Culture Infective Dose (TCID50) assay. Briefly, this dilution assay quantifies the amount of virus required to kill 50% of infected hosts. […] After incubation, the percentage of cell death (i.e. infected cells) was manually observed and recorded for each virus dilution. […]

FKBP = conditions: tighter binding; Clackson et al., 1998; cited from earlier work

## CC[C@H](C(=O)N1CCCC[C@H]1C(=O)O[C@H](CCc1ccc(OC)c(OC)c1)c1cccc(OCCN2CCOCC2)c1)c1cc(OC)c(OC)c(OC)c1 [Shield-1]
ARPE-19 cells
  Molar concentration of Shield-1 in the culture medium required to sustain viral replication: greater than 0.1 μM
FKBP
  Binding to the F36V derivative compared to wild-type FKBP: about 1,000 fold
